Measured values reported in US7109174B2, “Anticonvulsant derivatives useful for preventing the development of type II diabetes mellitus and syndrome X” (Ortho-McNeil Pharmaceutical, Inc., priority 2000, dated 2006).

Columns and labels:
[1] = tested on: ob/ob mice; test: ob/ob mice second study: topiramate in food for 118 days; skin lesions, glucose, insulin, glycosylated hemoglobin, body weight; type: in vivo; design: Glycosylated hemoglobin: unit not given here; settings: for Skin lesions Mild (mice) / Skin lesions Moderate (mice) / Skin lesions Severe (mice) / Skin lesions Total (mice): 180 mg/kg/day, N = 9
Excerpt: It is known that ob/ob mice when allowed to eat ad libitum, develop abnormally high blood levels of insulin (hyperinsulinemia), glucose (hyperglycemia), lesions of the skin, and a high level of glycosylated hemoglobin, all of which are hallmark signs of Type II diabetes mellitus (R. R. HENRY, Ann. Intern. Med. 1996, 124, 97–103; G. W. EDELSON, Clin. Podiatr. Med. Surg. 1998, 15, 41–48; P. R. JOHNSON, M. R. GREENWOOD, B. A. HORWITZ and J. S. STERN, Annu. Rev. Nutr. 1991, 11, 325–353). Based on this knowledge of the ob/ob mouse model, two studies were designed to determine the effect of compounds of formula (I) in these mice models.
In the second study, a uniform population of mice was divided into two groups. In one group of control mice, no topiramate was added to the food for the entire 118-day period. In a second group, topiramate was added to the food in amounts sufficient to give a daily dose of 60 mg/kg for 6 days, then a daily dose of 180 mg/kg for 112 days. During the course of the dosing period the mice were examined two-times a week for skin lesions. When skin lesions were evident, the severity was estimated based on the number and size of the lesions, and given a score ranging from mild to severe (Table 2). For four of the control mice their health deteriorated to the point that they either died or had to be euthanized. Three of these four control mice had lesions (two mice were classified as severe and one mice as mild). […] By comparison none of the nine mice treated with topiramate ever developed skin lesions (Table 2). After the 118-day period was completed, all surviving mice were sacrificed and blood was obtained and prepared for subsequent analysis of plasma glucose and insulin, and glycosylated hemoglobin. […] The body weight gain was similar in both groups throughout the study. Therfore, the beneficial effects of topiramate on the biological markers of the disease cannot be secondary to the potential beneficial effect that might arise from a loss of body eight.

[2] = tested on: db/db mice (Homozygous Diabetic Mice); test: Plasma glucose, triglycerides and body weight in female diabetic db/db mice, 11 days oral dosage; type: in vivo; settings: for Plasma Glucose % Change / Plasma Triglycerides % Change / Change in Body Weight / Plasma Triglycerides Plasma Conc. / Plasma Glucose Plasma Conc.: 11 days; for Plasma Glucose % Change / Plasma Triglycerides % Change: versus vehicle; for Change in Body Weight / Plasma Triglycerides Plasma Conc. / Plasma Glucose Plasma Conc.: ± SEM
Description: Six to seven week old female C57 BLK SIJ-m^+/^+ Lepr^db mice (db/db) and heterozygous littermates were purchased from The Jackson Laboratory (Bar Harbor, Me.). Upon arrival the mice were quarantined for 5 days and housed in pairs in shoe-box cages containing ALPHA-dri® bedding (Shepherd Speciality Papers, Inc., Kalamazoo, Mich.). The mice were maintained at an ambient temperature of 21 to 23° C. on a 12 hour-12 hour light-dark schedule and given access to water and food ad libitum. The diet was comprised of NIH (National Institutes of Health) Rat and Mouse/Auto 6F Reduced Fat Diet No. 5K52 (PMI Nutrition International Inc., Brentwood, Mo.).
The vehicle, used as a reference and for test compounds, was 0.5% methylcellulose dissolved in water. The compounds were either fully dissolved or uniformly suspended in the vehicle when administered to the mice.
The db/db mice were randomly separated into five groups of eight, as were the heterozygous littermates. The groups were as follows: one vehicle control group and four groups that each received one of four doses of topiramate (TPM) (10, 30, 100, or 300 mg/kg, respectively). Topiramate or vehicle was administered orally by gavage once a day during the 8th hour of the light portion of the light-dark cycle.
Between 18 and 24 hours after the last dose was administered, the mice were anesthetized with CO2/O2 (70:30) and blood from the retro-orbital sinus puncture was collected into 2 mL heparinized snap-top polypropylene tubes, then placed in ice.
Plasma was separated from blood cells by centrifugation (15 minutes at 1600 g). For samples not assayed immediately, the plasma was transferred into 96-well plates and frozen at −70° C.
Glucose and triglycerides were assayed using standard procedures for blood clinical laboratories. Specifically, the samples were analyzed using an automated Hitachi 717 autoanalyzer (Boehringer Mannheim/Hitachi 717 Autoanalyzer, Boehringer Mannheim Laboratory Systems Division, Indianapolis, Ind.). A statistical analysis of data for the drug-treated groups compared to data for the vehicle group was performed using the one-way analysis of variance (ANOVA) with Dunnett's Multiple Comparisons test.
Following the procedure described above, the effect of topiramate on plasma glucose and triglyceride levels was determined for female diabetic db/db mice and littermates, following 11 days oral dosage, with results as listed in Table 3 and 4. Body weights are in Table 5. The abbreviation N represents the number of animals per study group.

[3] = 100 mg/kg oral once a day, P < 0.01
[4] = 300 mg/kg oral once a day, P < 0.01

## CC1(C)O[C@@H]2[C@@H](CO[C@@]3(COS(N)(=O)=O)OC(C)(C)O[C@@H]23)O1 [Topiramate, 2,3:4,5-bis-O-(1-methylethylidene)-β-D-fructopyranose sulfamate]
[1]; 60 mg/kg/day 6 days then 180 mg/kg/day 112 days in food, end of study, mean±SEM, n=9, P<0.05
  level of blood glucose: 131 ± 13 mg/dL
[1]; Day 41
  Skin lesions Mild (mice): 0
  Skin lesions Moderate (mice): 0
  Skin lesions Severe (mice): 0
  Skin lesions Total (mice): 0
[1]; Day 53
  Skin lesions Mild (mice): 0
  Skin lesions Moderate (mice): 0
  Skin lesions Severe (mice): 0
  Skin lesions Total (mice): 0
[1]; Day 61
  Skin lesions Mild (mice): 0
  Skin lesions Moderate (mice): 0
  Skin lesions Severe (mice): 0
  Skin lesions Total (mice): 0
[1]; Day 70
  Skin lesions Mild (mice): 0
  Skin lesions Moderate (mice): 0
  Skin lesions Severe (mice): 0
  Skin lesions Total (mice): 0
[1]; Day 83
  Skin lesions Mild (mice): 0
  Skin lesions Moderate (mice): 0
  Skin lesions Severe (mice): 0
  Skin lesions Total (mice): 0
[1]; Day 96
  Skin lesions Mild (mice): 0
  Skin lesions Moderate (mice): 0
  Skin lesions Severe (mice): 0
  Skin lesions Total (mice): 0
[1]; Day 97
  Skin lesions Mild (mice): 0
  Skin lesions Moderate (mice): 0
  Skin lesions Severe (mice): 0
  Skin lesions Total (mice): 0
[1]; Day 105
  Skin lesions Mild (mice): 0
  Skin lesions Moderate (mice): 0
  Skin lesions Severe (mice): 0
  Skin lesions Total (mice): 0
[1]; Day 118
  Skin lesions Mild (mice): 0
  Skin lesions Moderate (mice): 0
  Skin lesions Severe (mice): 0
  Skin lesions Total (mice): 0
[1]; day 118
  body weight: 55.1 ± 1.3 g
[1]; day −1, n=9
  body weight: 42.8 ± 1.1 g
[1]; end of 118-day study
  insulin levels versus control: did not differ
[1]; end of 118-day study, mean±SEM, n=9, P<0.01
  Glycosylated hemoglobin: 3.16±0.1
[1]; nine topiramate-treated mice, 118-day period
  mice that ever developed skin lesions: none
[1]; throughout the 118-day study
  body weight gain versus control: similar
[1]; topiramate-treated versus control at end of 118-day study
  blood glucose difference between groups: 52%
[1]; versus surviving control mice, end of 118-day study
  Glycosylated hemoglobin reduction with topiramate treatment: 48%
[2]; 10 mg/kg oral once a day
  Plasma Glucose % Change: −27.4%
  Plasma Triglycerides % Change: −18.9%
  Change in Body Weight: 1.7 ± 0.9 g
  Plasma Triglycerides Plasma Conc.: 277 ± 30 mg/dL
[2]; 10 mg/kg oral once a day, P < 0.05
  Plasma Glucose Plasma Conc.: 382 ± 46 mg/dL
[2]; 10 mg/kg/day, P<0.05
  decrease in blood glucose vs. control: 27%
[2]; 30 mg/kg oral once a day
  Plasma Glucose % Change: −34.6%
  Plasma Triglycerides % Change: −11.2%
  Change in Body Weight: 2.6 ± 1.0 g
  Plasma Triglycerides Plasma Conc.: 303 ± 29 mg/dL
[2]; 30 mg/kg oral once a day, P < 0.01
  Plasma Glucose Plasma Conc.: 344 ± 31 mg/dL
[2]; 30 mg/kg/day, P<0.01
  decrease in blood glucose vs. control: 35%
[2]; 100 mg/kg oral once a day
  Plasma Glucose % Change: −36.6%
  Plasma Triglycerides % Change: −33.7%
  Change in Body Weight: 1.5 ± 0.7 g
[2]; [3]
  Plasma Glucose Plasma Conc.: 333 ± 42 mg/dL
  Plasma Triglycerides Plasma Conc.: 227 ± 15 mg/dL
[2]; 100 mg/kg/day, P<0.01
  decrease in blood glucose vs. control: 37%
[2]; 300 mg/kg oral once a day
  Plasma Glucose % Change: −60.5%
  Plasma Triglycerides % Change: −41.7%
  Change in Body Weight: 0.7 ± 2.4 g
[2]; [4]
  Plasma Glucose Plasma Conc.: 207 ± 41 mg/dL
  Plasma Triglycerides Plasma Conc.: 199 ± 16 mg/dL
[2]; 300 mg/kg/day, P<0.01
  decrease in blood glucose vs. control: 61%
[2]; 100 and 300 mg/kd/day, P<0.01
  decrease in plasma triglyceride levels versus diabetic controls: up to 42%
